Measurements from patent publication US4352799A, “2-Phenyl-1,2-benzisoselenazol-3(2H)-one containing pharmaceutical preparations and process for the treatment of rheumatic diseases” (A. Nattermann & Cie GmbH, priority 1980, dated 1982).

Assays:
[1] = tested on: granuloma in the connective tissue; assay: Granuloma test (cotton-pellet-test) according to R. MEIER; type: in vivo, rat
Description: In this test, cotton pellets impregnated with crotone oil are implanted subcutaneously into the test animals (rats) which impregnated cotton pellets cause the formation of granuloma in the connective tissue. After killing of the test animals, the granuloma are separated and recovered and are weighed as wet or dry tissue. The anti-proliferatic activity of an antiphlogistic agent is expressed in a lower granuloma weight in comparison to untreated control animals.

[2] = tested on: arthritis caused by Freud adjuvans (pad volume); assay: Adjunct-Arthritis (C. M. PEARSON); type: in vivo, rat (wistar); details: 7th day p.i.
[3] = tested on: ulcus formation of the stomach; assay: Ulcus test; type: in vivo, rat (wistar); details: 3.5 hours
Description: The determination of ulcus formation is carried out according to W. J. R. WHITTLE, Brit.J.Pharmacology 1975, vol. 55, pgs. 242 to 243; L. MARIANI, Europ. J. Toxicol. Eviron, 1975, vol. 8, pgs. 335 to 339; R. MENGUY and L. DESBAILLETS, Proc.Soc.Exp.Bio., vol. 125, p. 1108. In this test, 10 female and 10 male wistar rats are used each weighing 120 to 150 g. and which had been fed only with […] for 2 days and were kept thereafter without feeding for 16 hours. The formation of a bleeding ulcus of the stomach was provocated by oral application of the compound to be tested. 3.5 hours after administration the test animals were killed, the stomach was separated, opened along the large curvature and fixed to a polystyrol plate. There is determined the number and size of average ulcus formation both in the test group and in the control group.

[4] = tested on: arthritis caused by Freud adjuvans (pad volume); assay: Adjunct-Arthritis (C. M. PEARSON); type: in vivo, rat (wistar)
Description: There are used 10 wistar rats each weighing 120 to 150 g. per each dose. The same number of animals is used as control group. An arthritis is caused by subplantar injection of 0.5 ml. of Freud adjuvans. The test duration is 17 days. At the beginning of the test the volume of the pads of all for legs is determined as starting value. The volume is further determined on the 8th, 14th and 17th day of the test. In the evaluation, the difference between the pad volume at the beginning and at the end of the test is determined both in the test group as well as in the control group. The test result, i.e. the inhibition of the growth of the pad volume is expressed in percent.

[5] = tested on: edema in hindpads of rats; assay: rat pad edema test (HILLEBRECHT, Carragenine); type: in vivo; details: 3 hours
Description: The antiphlogistic properties are determined in the rat pad edema test according to HILLEBRECHT (J. HILLEBRECHT, Arzneim. Forsch. 1954, vol. 4, p. 607). In this test, the formation of an edema is caused in one of the hindpads of rats weighing each 200 to 250 grams, by subplantar injection of Carragenine (0.5% in 0.9% NaCl solution) in an amount of 0.1 ml. solution per each pad. After administration of the test compound in an amount which in general should not be larger than a volume of 10 ml. per kg. body weight, the volume of the pad is determined in an overflow. 3 hours after administration of the test compound the final volume is determined. The test is carried out with 10 test animals and 10 control animals of one sex per each dose and is repeated with the same number of animals of the other sex. For evaluation purposes the percent inhibition of edema formation is determined over the control group.

[6] = 0.1 mg./kg. p.o., 14th day p.i.
[7] = 0.1 mg./kg. p.o., 17th day p.i.

With `O=c1c2ccccc2[se]n1-c1ccccc1` [2-Phenyl-1.2-benzisoselenazol-3(2H)-one, 2-phenyl-1.2-benzisoselenazol-3(2H)-one] the “Decrease of granuloma weight” value ([1]; 0.1 mg./kg. p.o.) was -22%, the “Decrease of granuloma weight” value ([1]; 1 mg./kg. p.o.) was -21% and the “Decrease of granuloma weight” value ([1]; 10 mg./kg. p.o.) was -20%. For the same molecule, the “inhibitory effect (growth of pad volume)” value ([2]; 0.1 mg./kg. p.o.) was -22%, the “inhibitory effect (growth of pad volume)” value ([2]; 1 mg./kg. p.o.) was -46% and the “inhibitory effect (growth of pad volume)” value ([2]; 10 mg./kg. p.o.) was -30%. The “Ulcus formation, effectiveness” value ([3]; 1 mg./kg. p.o.) was 0, the “Ulcus formation, effectiveness” value ([3]; 10 mg./kg. p.o.) was 0 and the “Ulcus formation, effectiveness” value ([3]; 100 mg./kg. p.o.) was 0. For the same molecule, the “dose at lethality 0%” value (Toxicity in mice, p.o.; mice, p.o.) was > 2,150 mg./Kg, the mortality (Toxicity in mice, p.o.; mouse, in vivo, po, 2150 mg/kg) was 0% and the “inhibitory effect (growth of pad volume)” value [4, 6] was -10%. For the same molecule, the “inhibitory effect (growth of pad volume)” value [4, 7] was -13%, the “inhibitory effect (growth of pad volume)” value ([4]; 1 mg./kg. p.o., 14th day p.i.) was -36% and the “inhibitory effect (growth of pad volume)” value ([4]; 1 mg./kg. p.o., 17th day p.i.) was -33%. The “inhibitory effect (growth of pad volume)” value ([4]; 10 mg./kg. p.o., 14th day p.i.) was -22%, the “inhibitory effect (growth of pad volume)” value ([4]; 10 mg./kg. p.o., 17th day p.i.) was -24% and the toxicity effects ([4]; at higher doses, p.o.) was “no toxicity effects occur”. For the same molecule, the mortality (Toxicity in rats, p.o.; rat, in vivo, po, 4600 mg/kg) was 0%, the “dose at lethality 0%” value (Toxicity in rats, p.o.; rats, p.o.) was 4,600 mg./kg and the “Edema inhibition, inhibitory effect” value ([5]; 0.1 mg./kg. i.m.) was -23%. For the same molecule, the “Edema inhibition, inhibitory effect” value ([5]; 0.1 mg./kg. p.o.) was -1%, the “Edema inhibition, inhibitory effect” value ([5]; 1.0 mg./kg. i.m.) was -62% and the “Edema inhibition, inhibitory effect” value ([5]; 1.0 mg./kg. p.o.) was -57%. For the same molecule, the “Edema inhibition, inhibitory effect” value ([5]; 10 mg./kg. i.m.) was -35% and the “Edema inhibition, inhibitory effect” value ([5]; 10 mg./kg. p.o.) was -40%.

In the case of `COc1ccc2c(c1)c(CC(=O)O)c(C)n2C(=O)c1ccc(Cl)cc1` [Indometacin, reference compound], the “Decrease of granuloma weight” value ([1]; 1 mg./kg. p.o.) is reported as -21%, the “Decrease of granuloma weight” value ([1]; 3.2 mg./kg. p.o.) is reported as -7% and the “Decrease of granuloma weight” value ([1]; 5.6 mg./kg. p.o.) is reported as -6%. For the same molecule, the “inhibitory effect (growth of pad volume)” value ([2]; 0.1 mg./kg. p.o.) was -32%, the “inhibitory effect (growth of pad volume)” value ([2]; 1 mg./kg. p.o.) was -50% and the “lethality given in place of inhibitory effect” value ([2]; 10 mg./kg. p.o.) was “lethal”. For the same molecule, the LD50 (Toxicity in mice, p.o.; mouse, in vivo, po) was 19 mg/kg, the mortality (Toxicity in mice, p.o.; mouse, in vivo, po, 19 mg/kg) was 50% and the “inhibitory effect (growth of pad volume)” value [4, 6] was -25%. For the same molecule, the “inhibitory effect (growth of pad volume)” value [4, 7] was -37%, the “inhibitory effect (growth of pad volume)” value ([4]; 1 mg./kg. p.o., 14th day p.i.) was -40% and the “inhibitory effect (growth of pad volume)” value ([4]; 1 mg./kg. p.o., 17th day p.i.) was -40%. For the same molecule, the “lethality given in place of inhibitory effect” value ([4]; 10 mg./kg. p.o., 14th day p.i.) was “lethal”, the “lethality given in place of inhibitory effect” value ([4]; 10 mg./kg. p.o., 17th day p.i.) was “lethal” and the LD50 (Toxicity in rats, p.o.; rat, in vivo, po) was 38 mg/kg. The mortality (Toxicity in rats, p.o.; rat, in vivo, po, 38 mg/kg) was 50%, the “Edema inhibition, inhibitory effect” value ([5]; 1.0 mg./kg. i.m.) was -9% and the “Edema inhibition, inhibitory effect” value ([5]; 3 mg./kg. i.m.) was -23%. The “Edema inhibition, inhibitory effect” value ([5]; 3.8 mg./kg. p.o.) was -26%, the “Edema inhibition, inhibitory effect” value ([5]; 5.6 mg./kg. p.o.) was -45% and the “Edema inhibition, inhibitory effect” value ([5]; 8.3 mg./kg. p.o.) was -57%. For the same molecule, the “Edema inhibition, inhibitory effect” value ([5]; 10 mg./kg. i.m.) was -33%.
